Test results as given in ChEMBL document CHEMBL6078724, “Discovery of the first examples of right open reading frame kinase 2 (RIOK2) molecular glue degraders” (Eur J Med Chem, 2025).
Calls of active or inactive are those of the source. The calls are words filed in the database; no cut-off is given here.

Assays:
[1] = molecular target: T1, E3 ubiquitin-protein ligase RNF126/Serine/threonine-protein kinase RIO2 (Homo sapiens, UniProt Q9BVS4+Q9BV68); assay: Molecular glue degradation activity at RNF126/RIOK2 in human MOLT-4 cells assessed as induction protein degradation incubated for 12 hrs by immunoblot analysis relative to control; type: cell-based
Target sequence in this assay (Q9BV68 2-311 partner limits assumed): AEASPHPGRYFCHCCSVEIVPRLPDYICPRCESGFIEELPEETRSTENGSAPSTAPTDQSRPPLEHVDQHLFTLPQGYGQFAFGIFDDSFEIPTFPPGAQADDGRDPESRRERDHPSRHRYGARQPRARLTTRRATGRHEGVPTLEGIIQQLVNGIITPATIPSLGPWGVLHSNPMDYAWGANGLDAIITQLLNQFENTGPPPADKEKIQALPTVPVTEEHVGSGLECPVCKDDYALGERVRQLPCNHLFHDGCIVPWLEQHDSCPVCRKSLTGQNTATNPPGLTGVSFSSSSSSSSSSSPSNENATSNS
Target sequence in this assay (Q9BVS4 whole entry): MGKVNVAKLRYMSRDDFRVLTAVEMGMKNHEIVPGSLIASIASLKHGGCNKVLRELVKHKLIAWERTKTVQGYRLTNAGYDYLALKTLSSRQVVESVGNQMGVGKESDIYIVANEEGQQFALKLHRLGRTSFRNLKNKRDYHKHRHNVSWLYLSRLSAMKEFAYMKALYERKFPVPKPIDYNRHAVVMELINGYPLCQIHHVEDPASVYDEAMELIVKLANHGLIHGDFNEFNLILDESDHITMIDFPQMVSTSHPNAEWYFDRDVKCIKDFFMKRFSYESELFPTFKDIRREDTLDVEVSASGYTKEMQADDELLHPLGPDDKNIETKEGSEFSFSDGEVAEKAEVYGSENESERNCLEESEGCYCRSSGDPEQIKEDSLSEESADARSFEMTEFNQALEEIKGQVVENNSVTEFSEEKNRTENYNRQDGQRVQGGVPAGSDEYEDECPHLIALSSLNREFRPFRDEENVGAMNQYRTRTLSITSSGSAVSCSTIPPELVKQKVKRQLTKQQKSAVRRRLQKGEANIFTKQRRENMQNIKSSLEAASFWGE

[2] = molecular target: T1, E3 ubiquitin-protein ligase RNF126/Serine/threonine-protein kinase RIO2; assay: Molecular glue degradation activity at RNF126/RIOK2 in human MOLT-4 cells assessed as induction protein degradation at 1 uM incubated for 12 hrs by immunoblot analysis; type: cell-based
Target sequence in this assay (Q9BV68 2-311 partner limits assumed): as the sequence (Q9BV68 2-311 partner limits assumed) above
Target sequence in this assay (Q9BVS4 whole entry): as the sequence (Q9BVS4 whole entry) above

[3] = molecular target: T1, E3 ubiquitin-protein ligase RNF126/Serine/threonine-protein kinase RIO2; assay: Molecular glue degradation activity at RNF126/RIOK2 in MG132-treated human MOLT-4 cells assessed as induction protein degradation at 1 uM incubated for 12 hrs by immunoblot analysis; type: cell-based
Target sequence in this assay (Q9BV68 2-311 partner limits assumed): as the sequence (Q9BV68 2-311 partner limits assumed) above
Target sequence in this assay (Q9BVS4 whole entry): as the sequence (Q9BVS4 whole entry) above

[4] = molecular target: T1, E3 ubiquitin-protein ligase RNF126/Serine/threonine-protein kinase RIO2; assay: Molecular glue degradation activity at RNF126/RIOK2 in human HL-60 cells assessed as induction protein degradation by immunoblot analysis; type: cell-based
Target sequence in this assay (Q9BVS4 whole entry): as above
Target sequence in this assay (Q9BV68 whole entry): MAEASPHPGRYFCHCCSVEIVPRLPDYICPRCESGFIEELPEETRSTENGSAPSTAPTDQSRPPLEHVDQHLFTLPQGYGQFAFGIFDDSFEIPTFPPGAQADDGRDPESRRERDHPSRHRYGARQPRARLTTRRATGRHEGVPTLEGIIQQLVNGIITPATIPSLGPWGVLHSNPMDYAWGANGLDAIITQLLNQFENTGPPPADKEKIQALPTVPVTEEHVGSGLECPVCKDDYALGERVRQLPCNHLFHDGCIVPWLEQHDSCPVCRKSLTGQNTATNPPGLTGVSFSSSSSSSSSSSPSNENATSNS

[5] = molecular target: T1, E3 ubiquitin-protein ligase RNF126/Serine/threonine-protein kinase RIO2; assay: Molecular glue degradation activity at RNF126/RIOK2 in human K562 cells assessed as induction protein degradation by immunoblot analysis; type: cell-based
Target sequence in this assay (Q9BVS4 whole entry): as the sequence (Q9BVS4 whole entry) above
Target sequence in this assay (Q9BV68 whole entry): as the sequence (Q9BV68 whole entry) above

[6] = molecular target: T1, E3 ubiquitin-protein ligase RNF126/Serine/threonine-protein kinase RIO2; assay: Molecular glue degradation activity at RNF126/RIOK2 in human HeLa cells assessed as induction protein degradation by immunoblot analysis; type: cell-based
Target sequence in this assay (Q9BVS4 whole entry): as the sequence (Q9BVS4 whole entry) above
Target sequence in this assay (Q9BV68 whole entry): as the sequence (Q9BV68 whole entry) above

A549 = assay: Antiproliferative activity against human A549 cells incubated for 72 hrs by CCK8 assay; type: functional, cell-based; conditions: A549, 72 h
[7] = Antiproliferative activity against human MRC5 cells incubated for 72 hrs by CCK8 assay; type: toxicity, cell-based
[8] = molecular target: T1, E3 ubiquitin-protein ligase RNF126/Serine/threonine-protein kinase RIO2; assay: Molecular glue degradation activity at RNF126/RIOK2 in human MOLT-4 cells assessed as decrease in AKT level at 500 nM incubated for 12 hrs by immunoblot analysis; type: cell-based
Target sequence in this assay (Q9BV68 2-311 partner limits assumed): as the sequence (Q9BV68 2-311 partner limits assumed) above
Target sequence in this assay (Q9BVS4 whole entry): as the sequence (Q9BVS4 whole entry) above

MOLT-4 [9] = assay: Induction of cell cycle arrest in human MOLT-4 cells assessed as decrease in cyclin B1 level by Western blot analysis; type: functional, cell-based; conditions: dose <= 900.0 nM
MOLT-4 [10] = assay: Induction of apoptosis in human MOLT-4 cells assessed as increase in cleaved caspase-9 level by Western blot analysis; type: functional, cell-based; conditions: dose <= 900.0 nM
[11] = AUClast in Sprague-Dawley rat at 5 mg/kg, iv measured for 24 hrs; type: ADME, organism-based; conditions: in vivo

Emax [1]: 83.4% | Activity [2]: Active | Activity [3]: inactive | DC50 [4]: 550 nM | DC50 [5]: > 10000 nM | DC50 [6]: 8700 nM | IC50 (A549): 1060 nM | Activity [8]: Active | AUClast [11]: 1210 ng·h/mL
Compound: COc1ccc(-c2ccc3[nH]c(=O)c4nnn(-c5ccc(N6CCN(C(=O)/C=C/C(=O)c7ccc(F)cc7)CC6)c(C(F)(F)F)c5)c4c3c2)cn1
IC50 at 72 h [7]: 1090 nM | Activity (MOLT-4 [9]): Dose-dependent-effect | Activity (MOLT-4 [10]): Dose-dependent-effect
